Laboratory results reported in US20020122768A1, “Stable radiopharmaceutical compositions and methods for preparation thereof” (priority 2000, published 2002).
Marks after values point to notes of the source that are not given here.

Legend:
Type in all cases: physicochemical
[1] = Solution stability of ^90Y-A at room temperature, RCP by radio-HPLC; settings: room temperature; for RCP (%) t = 0 h / RCP (%) t = 24 h / RCP (%) t = 48 h / RCP (%) t = 120 h / RCP (%) t = 144 h / RCP (%) t = 72 h / RCP (%) t = 148 h: ^90Y-A (~20 mCi); for RCP (%) change: ^90Y-A, t = 0 h to last time point
Protocol: The advantage of using HPLC is that radio-impurities caused by radiolytic degradation can be separated from the radiopharmaceutical under optimized chromatographic conditions.
(§1) The initial RCP of a radiopharmaceutical is largely dependent on radiolabeling conditions such as pH, heating temperature and time. Once a radiopharmaceutical is prepared in high yield, the stability of the radiopharmaceutical composition is measured by the` RCP change of the radiopharmaceutical over a certain period of time.
Analytical Methods. HPLC method 1 used a HP-1100 HPLC system with a UV/visible detector (λ=220 nm), an IN-US radio-detector, and a Zorbax C18 column (4.6 mm×250 mm, 80 Å pore size).
The ITLC method used Gelman Sciences silica-gel ITLC paper strips and 1:1 mixture of acetone and saline as eluant.
(§2) The reaction mixture was heated at 100° C. for 10 min. A sample of the resulting solution was first diluted 20-fold with 2 mM DTPA solution (pH=5), and was then analyzed by HPLC (Method 1, injection volume=1-2 μL) and ITLC. […] The resulting solution was kept at room temperature for 6 days.
as §2, §2
The reaction mixture was heated at 100° C. for 10 min. A sample of the resulting solution was first diluted 20-fold with 2 mM DTPA solution (pH=5), and was then analyzed by HPLC (Method 1, injection volume 1-2 μL) and ITLC. […] The resulting solution was kept at room temperature for 7 days.
(§3) The reaction mixture was heated at 100° C. for 10 min. A sample of the resulting solution was first diluted 20-fold with 2 mM DTPA solution (pH=5), and was then analyzed by HPLC (Method 1, injection volume=1-2 μL) and ITLC. […] The resulting solution was kept at room temperature for 7 days.
as §3, §3

[2] = Solution stability of ^90Y-A at −78° C., RCP by radio-HPLC; settings: for RCP (%) change: t = 0 h to 72 h
Protocol: (§4) The integrity of a radiopharmaceutical is measured by the radiochemical purity (RCP) of the radiolabeled compound using ITLC or more preferably HPLC. The advantage of using HPLC is that radio-impurities caused by radiolytic degradation can be separated from the radiopharmaceutical under optimized chromatographic conditions. […] The radiopharmaceutical compositions of this invention are effective in maintaining the long-term stability of samples that have been frozen, thawed, and re-tested periodically for 7 days.
as §1, with “of time. For comparison purposes, sodium gentisate or sodium ascorbate was often used as the reference since they have been used in various radiopharmaceutical formulations.” for “of time.”
Analytical Methods. HPLC method 1 used a HP-1100 HPLC system with a UV/visible detector (λ=220 nm), an IN-US radio-detector, and a Zorbax C18 column (4.6 mm×250 mm, 80 Å pore size). The flow rate was 1 mL/min with the mobile phase being isocratic from 0 to 18 min using 87% solvent A (0.025 M ammonium acetate buffer, pH 6.8) and 13% solvent B (acetonitrile), followed by an isocratic wash using 40% of solvent A and 60% solvent B from 19 to 25 min.
The ITLC method used Gelman Sciences silica-gel ITLC paper strips and 1:1 mixture of acetone and saline as eluant. By this method, the radiolabeled compounds migrate to the solvent front while [^90Y]/^177Lu]colloid and [^90Y]/^177Lu]acetate remain at the origin.
^90Y-A was prepared using the procedure described in example 4. The resulting solution was the kept in a dry-ice box (−78° C.) for 3 days. Samples were analyzed at t=0, 24, 48, and 72 h.
To a lead-shielded clean 5 mL vial containing 100 μg of COMPOUND A and 2 mg of 3,4,5-trihydroxybenzoic acid (3,4,5-THBA) dissolved in 0.5 mL of 0.5 M ammonium acetate buffer (pH=8.0) was added 20 μL Of ^90YCl3 solution (˜20 mCi) in 0.05 N HCl. The reaction mixture was heated at 100° C. for 5 min. After cooling to room temperature, 0.5 mL of 3,4,5-THBA solution (20 mg/mL) in 0.5 M ammonium acetate buffer (pH=8.0) was added to the solution above. A sample of the resulting mixture was then diluted 20-fold with GA solution (10 mg/mL, pH=7.4), and analyzed by HPLC (Method 1, injection volume=1 μL) and ITLC. […] The resulting mixture was kept at −78° C. for 3 days. Samples were analyzed at t=0, 1, 2, and 3 days.
(§5) Synthesis of ^90Y-A was carried out according to the procedure described in example 12. After cooling to room temperature, 0.5 mL of 2,3,4-THBA solution (20 mg/mL) in 0.5 M ammonium acetate buffer (pH=8.0) was added to the solution containing ^90Y-A. The resulting mixture was kept at -78 °C for 3 days. Samples were analyzed at t=0, 1, 2, and 3 days.
as §5, with “DSA” for “2,3,4-THBA”, “−78° C.” for “-78 °C”
as §5, with “mL of HABA solution (20” for “mL of 2,3,4-THBA solution (20”, “kept at −78° C. for 3” for “kept at -78 °C for 3”, “3 days. […]” for “3 days.”
To a lead-shielded clean 30 mL vial containing 1000 μg of COMPOUND A and 100 mg of sodium gentisate (GA) dissolved in 5 mL of 0.5 M ammonium acetate buffer (pH=7.5) was added ˜250 μL of ^90YCl3 solution (˜200 mCi) in 0.05 N HCl. The reaction mixture was heated at 100° C. for 15 min. […]

[3] = Solution stability of ^90Y-B at −78° C., RCP by radio-HPLC; settings: ^90Y-B prepared with GA
Protocol: as §4
as §1, with “of time. For comparison purposes, sodium gentisate or sodium ascorbate was often used as the reference since they have been used in various radiopharmaceutical formulations.” for “of time.”
HPLC method 2 used a HP-1100 HPLC system with a UV/visible detector (λ=220 nm), an IN-US radio-detector, and a Zorbax C18 column (4.6 mm×250 mm, 80 Å pore size). The flow rate was 1 mL/min with a gradient mobile phase starting from 92% solvent A (0.025 M ammonium acetate buffer, pH 6.8) and 8% solvent B (acetonitrile) at 0 min to 90% solvent A and 10% solvent B at 18 min, followed by an isocratic wash using 40% of solvent A and 60% solvent B from 19 to 25 min.
The ITLC method used Gelman Sciences silica-gel ITLC paper strips and 1:1 mixture of acetone and saline as eluant. By this method, the radiolabeled compounds migrate to the solvent front while [^90Y]/^177Lu]colloid and [^90Y]/^177Lu]acetate remain at the origin. […]
The 0.5 M ammonium acetate buffer (pH 8.0) was first degassed under vacuum for 1-2 min. COMPOUND B and gentisic acid (sodium salt, GA) were dissolved in the degassed buffer to give a concentration of 100 μg/mL for COMPOUND B and 20 mg/mL for GA. The resulting solution was immediately degassed under vacuum for another 1-2 min. To a clean sealed 5 mL vial was added 1.0 mL of the degassed 0.5 M ammonium acetate buffer (pH 8.0) containing 100 μg COMPOUND B and 10 mg GA. The solution was degassed again under vacuum. Upon addition of ˜20 μL of ^90YCl3 solution (˜20 mCi) in 0.05 N HCl, the reaction mixture was heated at 100° C. for 5 min. After cooling to room temperature, a sample of the resulting solution was diluted 20-fold with saline containing gentisate (10 mg/mL), and was then analyzed by HPLC (Method 2, injection volume=1-2 μL) and ITLC. […] To the solution above was added 0.5 mL of sodium ascorbate solution (40 mg/mL in 0.5 M ammonium acetate buffer, pH=7.4). The resulting mixture was then kept in a dry-ice box (−78° C.) for 7 days. Samples were analyzed at t=0, 3 and 7 days.
The 0.5 M ammonium acetate buffer (pH 8.0) was first degassed under vacuum for 1-2 min. COMPOUND B and gentisic acid (sodium salt, GA) were dissolved in the degassed buffer to give a concentration of 100 μg/mL for COMPOUND B and 20 mg/mL for GA. The resulting solution was immediately degassed under vacuum for another 1-2 min. To a clean sealed 5 mL vial was added 1.0 mL of the degassed 0.5 M ammonium acetate buffer (pH 8.0) containing 100 μg COMPOUND B and 10 mg GA. The solution was degassed again under vacuum. Upon addition of ˜20 μL of ^90YCl3 solution (˜20 mCi) in 0.05 N HCl, the reaction mixture was heated at 100° C. for 5 min. After cooling to room temperature, a sample of the resulting solution was diluted 20-fold with saline containing gentisate (10 mg/mL), and was then analyzed by HPLC (Method 2, injection volume=1-2 μL) and ITLC. […] To the solution above was added 0.5 mL of 2,3,4-trihydroxybenzoic acid solution (20 mg/mL in 0.5 M ammonium acetate buffer, pH=6.5). The resulting mixture was then kept in a dry-ice box (−78° C.) for 7 days. Samples were analyzed at t=0, 3 and 7 days. […]

[4] = ^90Y-A, 10 mg stabilizer, dry-ice box (−78° C.)
[5] = ^90Y-A, 10 mg stabilizer, −78° C.
[6] = ^90Y-A prepared using 2 mg 3,4,5-THBA, second stabilizer (0.5 mL of 20 mg/mL) added after radiolabeling, −78° C.
[7] = degassed, second stabilizer (20 mg AA, 20 mg DSA, 10 mg 2,3,4-THBA, 10 mg HABA) added post-labeling

| Compound | RCP (%) t = 0 h ([1]; 2 mg stabilizer) [%] | RCP (%) t = 24 h ([1]; 2 mg stabilizer) [%] | RCP (%) t = 48 h ([1]; 2 mg stabilizer) [%] | RCP (%) t = 120 h ([1]; 2 mg stabilizer) [%] | RCP (%) t = 144 h ([1]; 2 mg stabilizer) [%] | RCP (%) t = 0 h ([1]; 10 mg stabilizer) | RCP (%) t = 24 h ([1]; 10 mg stabilizer) [%] | RCP (%) t = 72 h ([1]; 10 mg stabilizer) [%] | RCP (%) t = 148 h ([1]; 10 mg stabilizer) [%] | RCP (%) change ([1]; 10 mg stabilizer) [%] | RCP (%) t = 0 h [2, 4] [%] | RCP (%) t = 24 h [2, 4] [%] | RCP (%) t = 48 h [2, 4] [%] | RCP (%) t = 72 h [2, 4] [%] | RCP (%) change [2, 5] [%] | also measured |
| --- | --- | --- | --- | --- | --- | --- | --- | --- | --- | --- | --- | --- | --- | --- | --- | --- |
| O=Cc1cc(O)c(O)c(O)c1 [3,4,5-THBAD, 3,4,5-trihydroxybenzaldehyde] | 95.5 | 92.8 | 87.4 | 84.9 | 80.7 | 88.1* % | 82.3 | 77.3 | 68.4 | 19.7 | 88.2 | 86.4 | 87.3 | 87.4 | 0.8 | – |
| O=C([O-])c1cc(O)ccc1O.[Na+] [GA, sodium gentisate, reference compound] | 94.6 | 84.5 | 80.7 | 71.2 | 69.7 | 96.3% | 92.6 | 83.8 | 77.3 | 19 | 96.4 | 96.7 | 95.4 | 94.6 | 1.8 | – |
| Nc1ccc(C(=O)O)cc1O [HABA, 3-hydroxy-4-aminobenzoic acid] | – | – | – | – | – | – | – | – | – | – | – | – | – | – | – | RCP (%) t = 0 h [2, 6]: 98.5%; RCP (%) t = 24 h [2, 6]: 98.3%; RCP (%) t = 48 h [2, 6]: 98.7%; RCP (%) t = 72 h [2, 6]: 98.1%; RCP (%) change ([2]; ^90Y-A prepared using 2 mg 3,4,5-THBA, second stabilizer added after radiolabeling, −78° C.): 0.4%; RCP (%) t = 0 [3, 7]: 94.8%; RCP (%) t = 3 days [3, 7]: 94.5%; RCP (%) t = 7 days [3, 7]: 94.0%; RCP (%) change ([3]; second stabilizer added post-labeling, t = 0 to 7 days): 0.8% |
